Results as given in US20170239334A1, “ANTI-DIARRHEA FORMULATION WHICH AVOIDS ANTIMICROBIAL RESISTANCE” (Anatara Lifesciences Limited, priority 2014, published 2017).

Assay: Trial 2 (France): blinded randomised field trial in weaned piglets, weight gain, feed intake and feed conversion ratio versus in-feed colistin
Assay type: in vivo
Experimental: Aim: The objective of this study was to compare the feed conversion ratios of piglets administered a single dose of my formulation with in feed colistin, an antibiotic.
Study Outline: This study was a blinded, controlled, randomised field trial comparing three parallel groups of piglets, (n=89 per group): 1. Colistin; 2. My formulation; and 3. No treatment. In this study, whole litters are randomised to receive different treatments, so litters are treated on a whole litter basis.
Weaning on this farm occurs in 2 stages. In stage 1, piglets are weaned by removing the sow (at day-5). Then on day 0, piglets are moved to their weaning pen.
At day-5, Group 1 piglets were administered colistin (9 kg antibiotic premix per Ton of feed) in pre-starter feed for 14 days (day-5 to day 9). The other two groups were administered pre-starter feed alone. On day 0 (5 days post weaning), when piglets are moved to their weaner pens, Group 2 piglets received a single dose of my formulation. Group 3 piglets were untreated.
Analysis: As Per Study 1.

[1] = pre-starter phase (d-5 to d9), 6 pens

## colistin
Post weaning
  Average Daily Weight gain: 377 ± 82 g
Post weaning and fattening (overall)
  Average Daily Weight gain: 664 ± 67 g
Pre-starter (d -5 to d 9)
  Average Daily Weight gain: 167 ± 67 g
Starter
  Average Daily Weight gain: 505 ± 110 g
[1]
  Feed Conversion Ratio, Arithmetic Mean: 2.71
  Feed Conversion Ratio, Median: 2.59
  Feed Conversion Ratio, Min-Max: 1.75-3.42
  Feed intake, Arithmetic Mean: 417 g
  Feed intake, Min-Max: 358 to 479 g
